Experimental data: patent publication US20220040141A1, “ULTRAPURE PHENOL COMPOSITIONS” (priority 2018, published 2022)

Experiments:
[1] = increase of 1 mMol in plasma caprylic acid levels; cited from earlier work
[2] = Earlier CBD products (isolate powder, liquid CBD/vitamin E mixture, MCT emulsion) as used orally; type: in vivo; details: particularly relieving stiffness in joints
Text: Prior to preparing the compositions described herein, other CBD products were made, which include food products, including beverages, and mixtures with multiple components, such as an oil/liquid form that is taken directly from a dropper. The products can be flavored. A CBD isolate powder, which is a high purity CBD, can have powerful, and instant benefits. A water soluble CBD/vitamin E mixture can be included in food and drink such as cold pressed juice. […] However, the powder was difficult to work with and dose.
(§1) By mixing with fractionated coconut oil, or medium-chain triglyceride (MCT), a stable emulsion can be formed, which simplifies oral administration of CBD. Some products can mix the full spectrum CBD oil with alcohol or MCT oil, which is known as a tincture. […] For example, a batch of CBD/MCT oil was made using a ratio of 100 mg/ml, which allowed delivery as a spray to the mouth of 20 mg CBD per spray (one spray per serving). In another experiment, a second batch of oil targeted at 33 mg/ml, which targeted 6-7 mg per spray (2-3 sprays per serving). Performance can continue to be less impressive than the CBD powder.

[3] = Physical properties of CBD and its oil compositions; type: physicochemical; details: isolate powder, about 99% pure CBD
Text: The highest purity CBD is known as an isolate. The clear oil, or distillate, goes through another purification process, where it is converted into powder using a solvent, for example, hexane, at low heat.
as §1

SMILES | increase of ketone body production [1] | anti-inflammatory effect [2] | water solubility [3]
CCCCCCCC(=O)O [caprylic acid] | five-fold |  | 
C=C(C)[C@@H]1CCC(C)=C[C@H]1c1c(O)cc(CCCCC)cc1O [CBD isolate powder, cannabidiol] |  | exhibited anti-inflammatory properties | not water soluble
